Assay results taken from the supplement of paper PMC3937590.

Experiments:
Assay in all cases: -log10 GI50 (growth inhibition 50%) (-log10(M)); higher = more potent growth inhibition
[1] = system: 600MPE
In short: (§1)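 Dose-response data came from breast cancer cell lines exposed to each compound for 72 hours at nine doses in 1:5 serial dilution, in triplicate, and read by luminescence relative to a time-zero plate. A Gompertz curve fitted by nonlinear least squares gave GI50, the molar concentration for the set level of growth inhibition, reported as its negative logarithm to base 10. Where a value equals the top dose, it carries a < qualifier.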

[2] = system: BT474
In short: as §1

[3] = system: BT549
In short: as §1

[4] = system: HCC1143
In short: as §1

[5] = system: HCC1187
In short: as §1

[6] = system: HCC1395
In short: as §1

[7] = system: HCC1569
In short: as §1

[8] = system: HCC1806
In short: as §1

[9] = system: HCC2185
In short: as §1

[10] = system: HCC3153
In short: as §1

[11] = system: HS578T
In short: as §1

[12] = system: MCF10F
In short: as §1

[13] = system: MCF7
In short: as §1

[14] = system: MDAMB361
In short: as §1

[15] = system: MDAMB415
In short: as §1

[16] = system: SUM1315MO2
In short: as §1

[17] = system: SUM149PT
In short: as §1

[18] = system: SUM225CWN
In short: as §1

[19] = system: LY2
In short: as §1

[20] = system: ZR75B
In short: as §1

Structure (SMILES)	-log10 GI50 [1]	-log10 GI50 [2]	-log10 GI50 [3]	-log10 GI50 [4]	-log10 GI50 [5]	-log10 GI50 [6]	-log10 GI50 [7]	-log10 GI50 [8]	-log10 GI50 [9]	-log10 GI50 [10]	-log10 GI50 [11]	-log10 GI50 [12]	-log10 GI50 [13]	-log10 GI50 [14]	-log10 GI50 [15]	-log10 GI50 [16]	-log10 GI50 [17]	-log10 GI50 [18]	-log10 GI50 [19]	-log10 GI50 [20]
COc1cc2c(Nc3ccc(NC(=O)c4ccccc4)cc3)ncnc2cc1OCCCN1CCOCC1	< 4	4.29	5.47	6.07	6.39	5.3	5.69	< 4	5.96	< 4	5.88	< 4	< 4.48	5.41	5.45	< 4.3	< 4	4.98		
C[C@@H](Oc1cc(-c2cnn(C3CCNCC3)c2)cnc1N)c1c(Cl)ccc(F)c1Cl	6.21	5.11	5.44	5.7	7.24	5.37	5.68	6.11	5.18	5.16	5.85	5.61	5.91	5.44	5.69	5.24	5.7		5.8	5.64
C[C@@H](Oc1cc(-n2cnc3ccc(CN4CCN(C)CC4)cc32)sc1C(N)=O)c1ccccc1C(F)(F)F	5.16	5.07	7.48	7.17	7.48	8.37	7.05	7.95	8.29	7.78	7.71	7.11	6.5	8.72	7.15	7.52	7.96		5.8	7.06
Cn1ncc(Cl)c1-c1cc(C(=O)N[C@H](CN)Cc2ccc(F)c(F)c2)oc1Cl		7.16	5.45	5.41	8.02		6.55	5.25	> 9.77	6.12	5.58	5.45	6.91	6.65	7.24	5.01	7.42	6.88	6.62	
Nc1[nH]nc2nnc(-c3c(-c4ccccc4)nn4ccccc34)cc12	4.65	4.69	< 4	4.6	4.7	4.56	< 4		< 4	< 4.48	< 4.48	4.09	< 4.48	4.67	< 4	4.71	4.73	4.62		4.56
O=C1NC(=O)/C(=C/c2ccc3nccc(-c4ccncc4)c3c2)S1	6.31	6.8	5.73	6.24	6.84	5.61	5.94	5.82	6.9	5.54	5.74	6.71	5.56	5.92	6.26	6.49	6.01		5.87	6.51
Oc1cc(-c2nc(-c3ccccc3)[nH]c2-c2ccncc2)ccc1Cl	5.07	4.79	< 4.48	4.39	5.07	4.82	4.77	4.9	< 4.48	< 4.48	4.69	4.92	< 4.48	4.76	4.59	4.69	5.14	5.15		4.51
C=CCNC1=C2C[C@@H](C)C[C@H](OC)[C@H](O)[C@@H](C)/C=C(\C)[C@H](OC(N)=O)[C@@H](OC)/C=C\C=C(/C)C(=O)NC(=CC1=O)C2=O [17-AAG]	6.65	5.84	7.51	6.86	5.29	6.54	6.84	7.05	6.93	6.82	6.96	7.5	6.25	7.29	7.45	7.72	7.01		6.99	7.27
COc1cc2ncnc(Nc3cccc(Cl)c3)c2cc1OC [AG1478]	4.11	6.17	4.33	< 3.78	< 3.78	4.15	5.26	4.63	4.57	< 3.78	4.06	6.69	4.05	4.82	< 3.78	6.08	5.93		< 3.78	< 3.78
O=C(O)C1(C(=O)O)CCC1.[NH2-].[NH2-].[Pt+2] [Carboplatin]	3.82	3.97	4.61	3.88	4.66	5	3.96	4.81	4.88	4.45	4.1	4.41	3.64	4.34	3.79	4.57	4.82		4.34	3.52
N.N.[Cl][Pt][Cl] [Cisplatin]	4.33	4.42	5.6	5.04	5.67	5.91	5.11	5.68	5.71	5.12	5.16	5.42	4.66	5.06	3.84	5.75	5.8		5.11	4.06
CC(=O)O[C@@]12CO[C@@H]1C[C@H](O)[C@@]1(C)C(=O)[C@H](O)C3=C(C)[C@@H](OC(=O)[C@H](O)[C@@H](NC(=O)OC(C)(C)C)c4ccccc4)C[C@@](O)([C@@H](OC(=O)c4ccccc4)[C@H]21)C3(C)C [Docetaxel]	7.61	8.2	8.46	8.06	8.61	8.24	8.12	8.62	8.52	8.01	8.76	8.59	7.91	7.92	8.48	8.71	8.76		8.2	8.03
O=c1[nH]cc(F)c(=O)[nH]1 [Fluorouracil]	4.11	3.75	4.01	3.76	4.04	3.18	3.96	4.61	3.42	3.45	4.34	5.37	4.37	3.98	3.66	3.37	4.14		4.43	4.95
COc1cc2ncnc(Nc3ccc(F)c(Cl)c3)c2cc1OCCCN1CCOCC1 [Gefitinib]	5.21	6.14	4.86	4.93	4.53	5.17	5.19	5.31	4.53	< 4.48	4.76	6.16	< 4.48	5.03	5.09	5.83	5.62		4.62	4.67
COC1=C2C[C@@H](C)C[C@H](OC)[C@H](O)[C@@H](C)/C=C(\C)[C@H](OC(N)=O)[C@@H](OC)/C=C\C=C(/C)C(=O)NC(=CC1=O)C2=O [Geldanamycin]	7.43	7.84	8.22	7.1	7.8	7.42	7.47	7.12	7.69	7.18	7.28	8.14	6.62	7.78	7.52	7.7	8.22		7.24	7.05
COC(=O)Nc1nc2cc(C(=O)c3ccccc3)ccc2[nH]1 [Mebendazole]	5	6.5	6.3	6.01	5.4	6.33	5.31	6.5	< 4.18	6.69	6.46	5.45	6.22	6.24	6.28	< 4.18	6.18		6.32	6.81
NS(=O)(=O)c1ccc(Nc2nc(OCC3CCCCC3)c3[nH]cnc3n2)cc1 [NU6102]		4.79	4.6	4.87	5.11	5.03	4.79	4.81	4.84	4.8	4.69	5	4.63	4.58	4.58	5.42	5.14	4.3	4.56	4.85
Cc1c(O)cccc1C(=O)N[C@@H](CSc1ccccc1)[C@H](O)CN1C[C@H]2CCCC[C@H]2C[C@H]1C(=O)NC(C)(C)C [Nelfinavir]	5.05	4.9	4.99	5.13	4.85	< 4.48	< 4.48	5.11	< 4.48	5.21	5.07	4.99	4.8	4.97	5.25	< 4.48	4.98		5.05	5.13
CC(=O)O[C@H]1C(=O)[C@@]2(C)[C@H]([C@H](OC(=O)c3ccccc3)[C@]3(O)C[C@H](OC(=O)[C@H](O)[C@@H](NC(=O)c4ccccc4)c4ccccc4)C(C)=C1C3(C)C)[C@]1(OC(C)=O)CO[C@@H]1C[C@@H]2O [Paclitaxel]	7.51	7.99	8.16	7.8	8.05	7.71	7.95	8.11	8.22	7.7	8.38	8.08	7.79	7.79	8.18	8.29	8.03		7.97	7.38
CO[C@H]1C[C@@H]2CC[C@@H](C)[C@@](O)(O2)C(=O)C(=O)N2CCCC[C@H]2C(=O)O[C@H]([C@H](C)C[C@@H]2CC[C@@H](O)[C@H](OC)C2)CC(=O)[C@H](C)/C=C(\C)[C@@H](O)[C@@H](OC)C(=O)[C@H](C)C[C@H](C)/C=C/C=C/C=C/1C [Rapamycin]	5.12	7.62	5.33	6.27	7.78	4.84	6.7	4.01	8.79	5.25	4.35	5.44	6.84	6.22	8.69	5.56	5.03	7.97		
CNC(=O)c1cc(Oc2ccc(NC(=O)Nc3ccc(Cl)c(C(F)(F)F)c3)cc2)ccn1 [Sorafenib]	4.36	4.16	4.08	4.23	4.49	4.32	4.27	4.23	4.83	4.31	< 3	4.46	4.19	4.22	3.96	4.55	4.8	4.6		3.16
CCN(CC)CCNC(=O)c1c(C)[nH]c(/C=C2\C(=O)Nc3ccc(F)cc32)c1C [Sunitinib malate]	5.4	4.78	5.29	5.16	5.26	5.35	5.14	5.3	4.7	4.96	5.37	5.39	5.23	4.92	5.25	5.12	5.57	5.21	5.14	
